For one assay, the system named is calreticulin. Nature of the assay: Cell surface calreticulin by flow cytometry. Format: cell-based. The following applies: 6.25 μM Compound A, 1 μM FUdR, 500 nmol/L doxorubicin; 4 hours. An excerpt:
Experimental Overview. Tumor cells undergoing immunogenic cell death (ICD) emit damage associated molecular patterns (DAMPs). ICD is a sub-class of cell death that results in the potent stimulation of the innate immune system and subsequently the stimulation of adaptive immune responses. The cell surface expression of calreticulin during cell death is one of several established DAMPs characteristic of immunogenic cell death. Calreticulin translocates from the endoplasmic reticulin to the cell membrane where it functions as a potent “eat me” signal for macrophages and dictates tumor antigen transfer and therefore the immunogenicity of cancer cell death. PANC1 pancreatic carcinoma cells were treated with vehicle control (DMSO), 6.25 μM Compound A, 1 μM FUdR, or the combination of 6.25 μM Compound A and 1 μM FUdR for 4 hours and the concentration of cell surface calreticulin was deteremined by flow cytometry.
Cell Line Model Selection and Preparation. The PANC1 pancreatic cancer cell line was purchased from ATCC. Cells were cultured and expanded in humidified incubators at 5% CO2 until sufficient cells were available.
Drug Preparation and Treatments. All drugs/compounds were prepared freshly in cell culture media from 50 mM frozen stocks prior to treatment. Cells were seeded in 6-well plates and permitted to adhere overnight. Media was removed and replaced with media containing 6.25 μM Compound A, 1 μM FUdR or a combination of 6.25 μM Compound A and 1 μM FUdR. […]
Detection of Cell Surface Calreticulin. Cell surface calreticulin was quantified by flow cytometry. […] Cells were counted and 300,000 cells were washed in staining buffer and incubated in Calreticulin (D3E6) XP Alexa Fluor 488 Conjugate antibody (Cell Signaling) or IgG antibody (negative control antibody) on ice for 40 minutes. […] The IgG isotype control stained sample was used to correctly identify the positively stained population in which median fluorescence intensity was determined. Median fluorescence intensity values were exported and analyzed in Microsoft Excel and GraphPad Prism 6. […]
In general terms: In flow cytometry, cells or beads pass a laser one at a time.

For the next assay, the system named is HMGB1. Nature of the assay: Extracellular release of HMGB1 into cell culture media by ELISA. Format: cell-based. As to conditions: 12.5 μM Compound A, 1 μM FUdR; 24 hours. An excerpt:
Experimental Overview. High mobility group box 1 (HMGB1) is a nuclear non-histone chromatin-binding protein. The release of HMGB1 by immune cells or severely damaged cancer cells functions as an immunostimulatory chemokine and is a well-known damage-associated molecular pattern (DAMP). The release of HMGB1 during cell death is characteristic of immunogenic cell death, a sub-class of cell death that results in the potent stimulation of the innate and subsequently the stimulation of adaptive immune responses. HMGB1 functions as a pro-inflammatory cytokine-like factor and can form hetero-complexes with other immune regulators. HMGB1 binds to TLRs, RAGE and CXCR4 on immune cells stimulating chemotaxis and the secretion of pro-inflammatory factors. HCT116 colon carcinoma and JU77 mesothelioma cells were treated with vehicle control (DMSO), 12.5 μM Compound A, 1 μM FUdR, or the combination of 12.5 μM Compound A and 1 μM FUdR for 24 hours and the release of HMGB1 into the extracellular culture media was measured by ELISA.
Cell Line Model Selection and Preparation. The HCT116 cancer cell line was purchased from ATCC. JU77 cell line was a kind gift from Dr Dan Longley, QUB. Cells were cultured and expanded in humidified incubators at 5% CO2 until sufficient cells were available.
Drug Preparation and Treatments. All drugs/compounds were prepared freshly in cell culture media from 50 mM frozen stocks prior to treatment. Cells were seeded in 6-well culture dishes and allowed to adhere overnight before treatment with Compound A, FUdR, or Compound A in combination with FUdR. Additional wells were treated with doxorubicin to act as a positive inducer of HMGB1. Twenty-four hours after treatment, the media was aspirated and centrifuged (2500 rpm, 5 min, at 4° C.) to remove any cellular debris. The supernatant was collected for immediate processing or stored at −80° C. for later assay.
Detection of HMGB1 Release. HMGB1 was quantified using the HMGB1 ELISA kit (ST51011, IBL International). Enzyme conjugate (HMGB1 conjugated to peroxidase) and standard were reconstituted in 12 ml enzyme conjugate diluent, and 1 ml diluent buffer respectively and aliquots frozen at −80° C. until required. All reagents and samples were brought to room temperature immediately prior to use. A standard curve was prepared for the high sensitive detection range (0.313-10 ng/ml). 50 μl diluent buffer was pipetted into each well of the microtiter plate. 50 μl of standard, sample, positive control or negative control (diluent buffer) was pipetted, in duplicate, into respective wells as determined by the plate set up. The plate was covered with adhesive foil and incubated at 37° C. for 20 to 24 hours on an orbital shaker (450 rpm). Following the incubation period the incubation solution was discarded and the plate washed (5×300 μl per well). Excess wash buffer was removed by inversion on to a paper towel. 100 μl enzyme conjugate was added to each well, the plate covered with adhesive foil and incubated at 25° C. for 2 hours on an orbital shaker (450 rpm). Following the incubation the solution was discarded and the plate washed as before. Fresh color solution was prepared immediately prior to use and 100 μl added to each well using a multichannel pipette. The plate was then incubated for 30 minutes at room temperature. The color reaction was stopped by pipetting 100 μl of stop reagent to each well using a multichannel pipette. The plate was shaken gently to mix and the backs of the wells were cleaned using a lint-free tissue. The concentration of HMGB1 was determined on a CLARIOstar microplate reader by measuring the absorbance at 450 nm using a reference reading at 640 nm. Data was exported to Microsoft Excel for processing and statistical analysis consisting of one-way ANOVA with Tukey's Multiple Comparisons Test was performed in GraphPad Prism 6.
Background: An ELISA detects its analyte on a solid surface through an enzyme-linked reagent.

Take `COc1cccc2c1C(=O)c1c(O)c3c(c(O)c1C2=O)C[C@@](O)(C(=O)CO)C[C@@H]3O[C@H]1C[C@H](N)[C@H](O)[C@H](C)O1` [doxorubicin]: in the assay with calreticulin, the “increase in cell surface expression of calreticulin compared to control, PANC1 cells” value is 450%. Further, in the assay with HMGB1, the “increase in concentration of HMGB1 in cell culture media compared to control, HCT116 cells” value worked out at 213% and the “increase in concentration of HMGB1 in cell culture media compared to control, JU77 cells” value was “failed to elicit any significant increase”.

For the origin of these results see patent US20230263773A1, “COMBINATION THERAPY WITH DEOXYURIDINE TRIPHOSPHATASE INHIBITORS” (CV6 Therapeutics (NI) Limited, priority 2020, published 2023).
